In patent US10858360B2, “Tricyclic gyrase inhibitors” (priority 2011, dated 2020):
In brackets after ≈: the same amount, converted by molar mass. Like-named read-outs stand apart in the source and are kept apart here.

Legend:
S. aureus ATCC 13709 = assay: MIC, S. aureus ATCC 13709 (Alamar Blue broth microdilution); format: cell-based; details: for MIC: Staphylococcus aureus, ATCC13709, S. aureus
E. coli ATCC 25922 = assay: MIC, E. coli ATCC 25922; format: cell-based; details: for MIC: Escherichia coli, ATCC25922, E. coli
[1] = Alamar Blue read after overnight incubation at 35° C.
[2] = S. aureus, Alamar Blue read after overnight incubation at 35° C.
[3] = E. coli, Alamar Blue read after overnight incubation at 35° C.

Compound	MIC (S. aureus ATCC 13709; [1]) [µg/mL]	MIC (E. coli ATCC 25922; [1]) [µg/mL]	MIC Sa (S. aureus ATCC 13709; [2]) [µg/mL]	MIC Ec (E. coli ATCC 25922; [3]) [µg/mL]	also measured
Nc1cccc2c1[nH]c1nc(Sc3cnc4ccc[n+]([O-])c4c3)nc(N3CC4C(N)C4C3)c12 (stereo not drawn) [1.8]	64 (≈ 140 µM)	> 64	–	–	–
CNc1cc(F)cc2c1[nH]c1nc(Oc3cnc(SC)nc3)nc(N3CC4CCNC4C3)c12 (stereo not drawn) [4.198]	≤ 0.5	≤ 0.5	–	–	–
CNc1cc(F)cc2c1[nH]c1nc(Oc3cnc(C)nc3)nc(N3CC4C(N)CC4(C)C3)c12 (stereo not drawn) [4.150]	–	–	≤0.5	1 (≈ 2.23 µM)	–
CNc1cc(F)cc2c1[nH]c1nc(Oc3cnc(C)nc3)nc(N3CC(C)C(CN)C3)c12 (stereo not drawn) [4.087]	–	–	≤0.5	1 (≈ 2.29 µM)	–
CNc1cc(F)cc2c1[nH]c1nc(Oc3cncnc3)nc(N3CCC4CNC4C3)c12 (stereo not drawn) [4.018]	≤ 0.5	≤ 0.5	–	–	–
CNc1cc(F)cc2c1[nH]c1nc(Oc3cncc(-c4nnnn4C)c3)nc(N3CC4CC(N)C4C3)c12 (mixture of isomers) [4.171]	–	–	≤0.5	4	–
CNc1c(F)ccc2c1[nH]c1nc(Oc3cncnc3)nc(N3CC4C(N)C4C3)c12 (stereo not drawn) [6.02]	–	–	–	–	MIC Sa (S. aureus ATCC 13709): ≤0.5 µg/mL; MIC Ec (E. coli ATCC 25922): ≤0.5 µg/mL
CNc1cc(F)cc2c1[nH]c1nc(Oc3cnc(N)nc3)nc(N3C4CCC3CC(N)C4)c12 (stereo not drawn) [4.183]	1 (≈ 2.22 µM)	8 (≈ 17.8 µM)	–	–	–
CNc1ncc(Oc2nc(N3CCC4(CC4N)C3)c3c(n2)[nH]c2c(NC)cc(F)cc23)cn1 (stereo not drawn) [4.220]	≤ 0.5	≤ 0.5	–	–	–
CNc1cc(Cl)cc2c1[nH]c1nc(Oc3cncnc3)nc(N3CC4(CC4N)C3)c12 (stereo not drawn) [6.12]	–	–	–	–	MIC Sa (S. aureus ATCC 13709): ≤0.5 µg/mL; MIC Ec (E. coli ATCC 25922): ≤0.5 µg/mL
CNc1cc(F)cc2c1[nH]c1nc(Oc3cnc(CO)nc3)nc(N3CC4C(N)CC4(C)C3)c12 (stereo not drawn) [4.389]	–	–	≤0.5	≤0.5	–
CNc1cc(F)cc2c1[nH]c1nc(Oc3cnc(N)nc3)nc(N3CC(NC(=O)CN)C4(CC4)C3)c12 (stereo not drawn) [4.182]	–	–	2 (≈ 4.06 µM)	16 (≈ 32.5 µM)	–
CNc1cc(F)cc2c1[nH]c1nc(Oc3cnc(CO)nc3)nc(N3CC4(CC[C@H]4N)C3)c12 [4.388]	≤ 0.5	≤ 0.5	–	–	–
CNc1cc(F)cc2c1[nH]c1nc(Oc3cnc(SC)nc3)nc(N3CC4CC(N)C4C3)c12 (stereo not drawn) [4.196]	≤ 0.5	≤ 0.5	–	–	–
CNc1cccc2c1[nH]c1nc(Oc3cncc(F)c3)nc(N3CC4C(N)C4C3)c12 (stereo not drawn) [3.33]	≤ 0.5	1 (≈ 2.47 µM)	–	–	–
CNc1cc(F)cc2c1[nH]c1nc(Oc3ccc(C#N)nc3)nc(N3CC4CCNC4C3)c12 (stereo not drawn) [4.330]	–	–	≤0.5	≤0.5	–
CNc1cc(F)cc2c1[nH]c1nc(Oc3cnc(C)nc3)nc(N3CCNCC3)c12 [4.163]	–	–	≤0.5	≤0.5	–
CNc1cc(F)cc2c1[nH]c1nc(Oc3cnc(C(C)(C)N)nc3)nc(N3C[C@H]4CC3C[C@H]4N)c12 [4.442]	1 (≈ 2.09 µM)	2 (≈ 4.19 µM)	–	–	–
CNc1cccc2c1[nH]c1nc(Oc3cncc(F)c3)nc(N3CC(N)C4(CC4)C3)c12 (stereo not drawn) [3.50]	≤ 0.5	2 (≈ 4.77 µM)	–	–	–
CNc1cc(F)cc2c1[nH]c1nc(Oc3cnc(C)nc3)nc(-c3cccc(CN)c3F)c12 [4.422]	4 (≈ 8.94 µM)	16 (≈ 35.8 µM)	–	–	–
CNc1cc(F)c(F)c2c1[nH]c1nc(Oc3cncnc3)nc(N3CC4C(N)C4C3)c12 (stereo not drawn) [6.19]	–	–	–	–	MIC Sa (S. aureus ATCC 13709): >16 µg/mL; MIC Ec (E. coli ATCC 25922): >16 µg/mL

Compound	MIC (S. aureus ATCC 13709; [1]) [µg/mL]	MIC (E. coli ATCC 25922; [1]) [µg/mL]	MIC Sa (S. aureus ATCC 13709; [2]) [µg/mL]	MIC Ec (E. coli ATCC 25922; [3]) [µg/mL]	also measured
CNc1cc(F)cc2c1[nH]c1nc(Oc3cnc(C(C)(C)C)nc3)nc(N3CC4CC3C[C@H]4N)c12 (stereo partly drawn) [4.441]	≤ 0.5	≤ 0.5	–	–	–
CNc1cccc2c1[nH]c1nc(Oc3cncnc3)nc(N3CC4C(C3)C4NCC3CC3)c12 (stereo not drawn) [3.13]	≤ 0.5	1 (≈ 2.26 µM)	–	–	–
CNc1cccc2c1[nH]c1nc(Oc3cncnc3)nc(N3CC(N)C4(CC4)C3)c12 (stereo not drawn) [3.45]	≤ 0.5	≤ 0.5	–	–	–
CNc1cccc2c1[nH]c1nc(Sc3cnc4ccc[n+]([O-])c4c3)nc(N3CC[C@H](N)C3)c12 [1.14]	≤ 0.5	1 (≈ 2.18 µM)	–	–	–
CNc1cc(F)cc2c1[nH]c1nc(Oc3cncc(-c4ccco4)c3)nc(N3CC4CC(N)C4C3)c12 (stereo not drawn) [4.350]	–	–	≤0.5	4 (≈ 8.24 µM)	–
CNc1cc(F)cc2c1[nH]c1nc(Oc3cnc(C)nc3)nc(-c3ccc(F)cc3CN)c12 [4.420]	2 (≈ 4.47 µM)	> 16	–	–	–
CNc1cc(F)cc2c1[nH]c1nc(Oc3cnc(C4CC4)nc3)nc(N3CC4CC(N)C4C3)c12 (stereo not drawn) [4.240]	≤ 0.5	≤ 0.5	–	–	–
CNc1cc(F)cc2c1[nH]c1nc(Oc3cnc(SC)nc3)nc(N3CC4C(N)C4C3)c12 (stereo not drawn) [4.193]	≤ 0.5	≤ 0.5	–	–	–
CNc1cc(F)cc2c1[nH]c1nc(Oc3cnc4c(c3)ncn4C)nc(N3CC4CC(N)C4C3)c12 (stereo not drawn) [4.226]	–	–	≤0.5	2 (≈ 4.22 µM)	–
CNc1cc(F)cc2c1[nH]c1nc(Oc3cnc(CC(=O)N4CC(N(C)C)C4)nc3)nc(N3C[C@H](N)C4(CC4)C3)c12 [4.373]	2 (≈ 3.57 µM)	8 (≈ 14.3 µM)	–	–	–
CCc1ncc(Oc2nc(N3CCC4(CC4N)C3)c3c(n2)[nH]c2c(NC)cc(F)cc23)cn1 (stereo not drawn) [4.263]	≤ 0.5	≤ 0.5	–	–	–
CNc1cccc2c1[nH]c1nc(Sc3cnc4cccnc4c3)nc(N3CC4C(N)C4C3)c12 (stereo not drawn) [1.12]	≤ 0.5	1 (≈ 2.2 µM)	–	–	–
CNc1cc(F)cc2c1[nH]c1nc(Oc3cnc(C)nc3)nc(N(C)C3CNC3)c12 [4.134]	–	–	>16	>16	–
CNc1cc(F)cc2c1[nH]c1nc(Oc3cnc(C)nc3)nc(N3CC4CNCCC43)c12 (stereo not drawn) [4.082]	–	–	1 (≈ 2.3 µM)	8 (≈ 18.4 µM)	–
CNc1cc(F)cc2c1[nH]c1nc(Oc3cnc(C)nc3)nc(N3CC(NC(=O)C(N)CO)C4(CC4)C3)c12 (stereo not drawn) [4.124]	–	–	≤0.5	8 (≈ 15.3 µM)	–
CNc1cc(F)cc2c1[nH]c1nc(Oc3ccc4sc(N)nc4c3)nc(N3C[C@H]4CC[C@@H](N)[C@H]4C3)c12 [4.335]	≤ 0.5	4 (≈ 7.93 µM)	–	–	–
CNc1cc(F)cc2c1[nH]c1nc(Oc3ccc4c(c3)C(=O)NC43CC3)nc(N3CC4CC(N)C4C3)c12 (stereo not drawn) [4.381]	–	–	4 (≈ 8.01 µM)	16 (≈ 32 µM)	–
CNc1cc(F)cc2c1[nH]c1nc(Oc3cnc(C)nc3)nc(N3C[C@H](N)[C@@H](O)C3)c12 [4.136]	–	–	2 (≈ 4.71 µM)	8 (≈ 18.8 µM)	–
CNc1cc(F)cc2c1[nH]c1nc(Oc3cnc(C)nc3)nc(N3C4CCC3CC(N)C4)c12 (stereo not drawn) [4.091]	–	–	≤0.5	1 (≈ 2.23 µM)	–
CNc1cc(F)cc2c1[nH]c1nc(Oc3cncnc3)nc(N3CCC4(CC4N)C3)c12 (stereo not drawn) [4.003]	≤ 0.5	≤ 0.5	–	–	–
CNc1cc(F)cc2c1[nH]c1nc(Oc3cncnc3)nc(N3CC4CNC(C4)C3)c12 (stereo not drawn) [4.015]	≤ 0.5	1 (≈ 2.38 µM)	–	–	–

Compound	MIC (S. aureus ATCC 13709; [1]) [µg/mL]	MIC (E. coli ATCC 25922; [1]) [µg/mL]	MIC Sa (S. aureus ATCC 13709; [2]) [µg/mL]	MIC Ec (E. coli ATCC 25922; [3]) [µg/mL]	also measured
CNc1cc(F)cc2c1[nH]c1nc(Oc3cncnc3)nc(N3CC4CNC4C3)c12 (stereo not drawn) [4.008]	≤ 0.5	≤ 0.5	–	–	–
CNc1ncc(Oc2nc(N3CC4C(N)C4C3)c3c(n2)[nH]c2c(NC)cc(F)cc23)cn1 (stereo not drawn) [4.218]	≤ 0.5	≤ 0.5	–	–	–
CNc1cc(F)cc2c1[nH]c1nc(Oc3cnc(CC(=O)OC)nc3)nc(N3C[C@H](N)C4(CC4)C3)c12 [4.368]	≤ 0.5	≤ 0.5	–	–	–
CNc1cc(F)cc2c1[nH]c1nc(Oc3cncnc3)nc(N3CC4CC(N)C4C3)c12 (stereo not drawn) [4.026]	≤ 0.5	≤ 0.5	–	–	–
CNc1cc(F)cc2c1[nH]c1nc(Oc3cnc(CO)nc3)nc(N3CC4CC(N)C4C3)c12 (stereo not drawn) [4.386]	≤ 0.5	≤ 0.5	–	–	–
CNc1cccc2c1[nH]c1nc(Sc3cnc4cccnc4c3)nc(N3C[C@H](N)C[C@@H]3CO)c12 [1.68]	16 (≈ 33.9 µM)	32 (≈ 67.7 µM)	–	–	–
CNc1cc(F)cc2c1[nH]c1nc(Oc3cncnc3)nc(N3CC4CC3C4CN)c12 (stereo not drawn) [4.030]	–	–	2 (≈ 4.76 µM)	16 (≈ 38.1 µM)	–
CNc1cc(F)cc2c1[nH]c1nc(Oc3cnc(C)nc3)nc(N3CC(N)C(C(=O)OC)C3)c12 (stereo not drawn) [4.437]	≤ 0.5	1 (≈ 2.14 µM)	–	–	–
CNc1cc(F)cc2c1[nH]c1nc(Oc3cnc(C)nc3)nc(N3CC(N)C4(CC4)C3)c12 (stereo not drawn) [4.065]	–	–	≤0.5	≤0.5	–
CNc1cc(F)cc2c1[nH]c1nc(Oc3cnc(C)nc3)nc(N3C[C@@H]4CCN[C@@H]4C3)c12 [4.156]	≤ 0.5	≤ 0.5	–	–	–
CNc1cc(F)cc2c1[nH]c1nc(Oc3cnc(C)nc3)nc(N3CC(N)C3)c12 [4.138]	–	–	≤0.5	≤0.5	–
CNc1cc(F)cc2c1[nH]c1nc(Oc3cc(O)c4c(C)cc(=O)oc4c3)nc(N3CC4CC(N)C4C3)c12 (stereo not drawn) [4.382]	–	–	1 (≈ 1.94 µM)	16 (≈ 31 µM)	–
CNc1cc(F)cc2c1[nH]c1nc(Oc3cnc(C)nc3)nc(N3CCC(C)(N)CC3)c12 [4.135]	–	–	≤0.5	1 (≈ 2.29 µM)	–
CCNc1cccc2c1[nH]c1nc(Sc3cnc4cccnc4c3)nc(N3CC4C(N)C4C3)c12 (stereo not drawn) [1.11]	≤ 0.5	8 (≈ 17.1 µM)	–	–	–
CNc1cc(F)cc2c1[nH]c1nc(Oc3cncc(-c4nnn(C)n4)c3)nc(N3CC4C(N)C4C3)c12 (stereo not drawn) [4.210]	–	–	≤0.5	1 (≈ 2.05 µM)	–
CNc1cccc2c1[nH]c1nc(Oc3cncc(F)c3)nc(N3C[C@@H](N)C4(CC4)C3)c12 [3.51]	8 (≈ 19.1 µM)	32 (≈ 76.3 µM)	–	–	–
CNc1cc(F)cc2c1[nH]c1nc(Oc3cnc(C)nc3)nc(N3CC(N)C4(CC4)C3)c12 (stereo not drawn) [4.068]	–	–	≤0.5	≤0.5	–
CNc1cc(F)c(F)c2c1[nH]c1nc(Oc3cnc(C)nc3)nc(N3CC4(CCC4N)C3)c12 (stereo not drawn) [5.1]	–	–	≤0.5	≤0.5	–
CNc1cccc2c1[nH]c1nc(Sc3cnc4ccc[n+]([O-])c4c3)nc(N3CC(CNC(=O)c4cn(C)nc4C(F)(F)F)C3)c12 [1.21]	≤ 0.5	> 64	–	–	–
CNc1cc(F)cc2c1[nH]c1nc(Oc3cnc(NC4CC4)nc3)nc(N3CC4C(N)C4C3)c12 (stereo not drawn) [4.223]	≤ 0.5	≤ 0.5	–	–	–
CNc1cc(F)cc2c1[nH]c1nc(Oc3cncc(Cl)c3)nc(N3CC4CC3CC4N)c12 (stereo not drawn) [4.279]	–	–	≤0.5	≤0.5	–
